The values that follow come from patent US6208893A, “Electroporation apparatus with connective electrode template” (Genetronics, Inc., priority 1999, dated 2001).

Read-outs that look alike come from different tables or passages of the source.

Series [1] has as its system PC-3 cells. Briefly: XTT cell proliferation assay, cytotoxicity on PC-3 cells with and without electroporation. Conditions: for cell susceptibility with electroporation / cytotoxic enhancement, rank order: combined with electroporation; for cytotoxicity enhancement ratio: IC50 no electroporation vs with electroporation. The procedure:
PC-3 cells (ATCC CRL-1435, a prostate cancer cell line) were grown in RPMI-1640 supplemented with 15% fetal calf serum (FCS) and 1% L-glutamine in 5% CO2 at 37° C. Cells in the exponential phase of growth were harvested by trypsinization and their viability was determined by trypan blue exclusion. Cell were suspended in culture medium at 2×10^5 cells/ml and seeded in the wells of a 96-well plate at a final concentration of 4×10^4 cells per well. Cells were pulsed using appropriate needle array electrodes connected to a square wave pulse generator. The needle array was inserted in the well of the 96 well microplate and pulsed using the following parameters:
A cell survival curve was produced for the different electric fields.
Methods, 142:2, 257-265, 1991). The XTT assay is based on a spectrophotometric assay of the metabolic conversion of tetrazolium salts to formazan; living cells convert XTT to formazan, which can be measured spectrophotometrically. Results were expresses as a comparison of the lC50 (concentration of drug inhibiting 50% of the cells) of each agent in the presence and absence of clectroporation, and are presented in Table 1.
Background: Tetrazolium dyes change colour on reduction, which living cells bring about.

The test system of series [2] is prostate. Briefly: Intraprostatic injection of Bleomycin with electroporation, tolerability, ECG and histology in dog. Format: in vivo, male beagle dog. The protocol:
In order to evaluate the technical feasibility of intraprostatic injection of Bleomycin, the following study was performed. A male beagle dog with a prostate size of >2 cm in diameter was anesthetized, A midline laparotomy was performed, and the bladder and gut reflected to visualize the prostate gland. Under direct visual guidance, Bleomycin was injected into each of six sextants (base, mid, and apex of both the left and right sides) of the prostate. Four electroporation needles were then inserted transperineally under visual guidance to administer the electroporation cycles. […] The ECG was recorded during each of the electroporation pulse sequences. The first two sequences were conducted with the needles inserted into the prostate, through the perineum. Four additional sequences were recorded with the needles inserted directly into the muscles of the left hindlimb. Each of the pulse sequences produced stimulation artifacts on the recording of the ECG.
The prostate was then excised and processed for histological evaluation.

In series [3] the test system is tumor cell. Conditions: cited from earlier work.
The conditions of series [4]: partition coefficient between octanol and water; cited from earlier work.
Series [5] deals with PC-3 cells. Nature of the series: PC-3 tumors in nude mice, intratumoral bleomycin with or without electroporation. It is filed as in vivo, nude mice; human prostate tumor (PC-3) cells. Particulars: for death: deaths due to infighting. The protocol:
In order to examine the effect of electroporation on the effectiveness of chemotherapeutic agents in vivo, a nude mouse model was utilized. For these experiments, 0.1 ml of a matrigel solution (a serum-free solution consisting of one part matrigel diluted in four parts RPMI-1640) containing 5×10^6 PC-3 cells was implanted on the flank of nude mice. The tumors were allowed to grow until a tumor volume of […]. The mice were weighed and randomly divided into six groups as follows:
Group 1: no chemotherapeutic agent, no electroporation
Group 2: 0.5 unit Bleomycin, no electroporation
Group 3: 0.5 units Bleomycin, 4 needle array, 0.65 cm, 942V, 4×100 μs pulses
Group 4: 0.5 units Bleomycin, 6 needle array, 1.00 cm, 1130 V, 6×100 μs pulses
Group 5: 0.5 units Bleomycin, 6 needle array, 0.50 cm, 559 V, 6×100 μs pulses
Group 6: 0.5 units Bleomycin, 4 needle array, 0.87 cm, 1500V, 4×100 μs pulses
In those animals which received Bleomycin, the chemotherapeutic agent (0.5 unit) was dissolved in 0.01 ml saline and injected intratumorally by "fanning." After 10±1 minutes, a Genetronics Medpulser™ device was used to pulse the tumors with a set of either 6 or 4-needle array electrodes. All treatments were given as a single set of pulses.
The animals were monitored daily for morality or any sign of disease for 67 days (see FIG. 24, where D=drug treatment (Bleomycin) and e=electroporation). Tumor size was measured and tumor volume calculated using the formula: […]
wherein a, b, and c are the length, width, and depth of the tumor in mm.
Following the monitoring period, the tumors were harvested and sections were prepared for histological analyses. Animals were classified as having progressive disease (appearance of new lesions not previously identified or having an estimated increase of 25% or more in existent lesion size), a complete response (complete disappearance of all known disease, a partial response (wherein the tumor size decrease 50% or more). Deaths were noted to be due to infighting of mice in the same cage.

Setting [6] is: during electroporation pulse sequences.

Regarding `N.N.[Cl][Pt][Cl]` [Cisplatin], the “cell susceptibility with electroporation” value in series [1] is “electroporation enhances cell susceptibility”. Moreover, the IC50 in series [1] (read-out: IC50 no electroporation, no electroporation, 20 hours after treatment) worked out at 50 µM; in series [1] (read-out: IC50 with electroporation, with electroporation, 6 pulses, 99 μs, 400-600 V, 0.5 cm needle array, 20 hours after treatment), 10 µM.

Turning to `CO[C@@]12[C@H](COC(N)=O)C3=C(C(=O)C(C)=C(N)C3=O)N1C[C@@H]1N[C@@H]12` [Mitomycin C], the IC50 in series [1] (Homo sapiens, PC-3, 20 h, read-out: IC50 no electroporation) turned out to be 80 µM. Besides, the IC50 in series [1] (Homo sapiens, PC-3, 20 h, read-out: IC50 with electroporation) turned out to be 60 µM. Also, in series [1], the cytotoxicity enhancement ratio turned out to be 1.33; the “cytotoxic enhancement, rank order” value was “followed by Cisplatin and Mitomycin C”.

Bleomycin: the “ECG, electrical rhythm of the heart” value in series [2] (setting [6]) is on record as “no effect on the electrical rhythm of the heart”. Besides, the “clinical disturbances of the cardiac rhythm” value in series [2] (setting [6]) is “no clinical disturbances of the cardiac rhythm were observed”. Besides, the muscular contractions entry in series [2] (during the electroporation pulses) was “muscular contractions were observed”. In series [2] (intraprostatic Bleomycin plus electroporation), the “acute local or adverse reactions” value is “No acute local or adverse reactions”. In addition, the injection site finding result in series [2] (intraprostatic Bleomycin plus electroporation, persisted for the duration of the study) is reported as “Small hematomas were evident at the injection site”. For the same molecule, in series [2] (one hour after electroporation), the “gross examination of prostate, perineum and surrounding tissues” value is listed as “no findings except for the hematomas on the prostate surface”. Moreover, in series [2] (one hour after electroporation), the “necrosis of epithelial cells in the glandular portion of the prostate” value is on record as “Necrosis occurred in the epithelial cells”. Also, the “necrosis of the supporting stroma” value in series [2] (one hour after electroporation) is recorded as “No necro-sis of the supporting stroma was observed”. The “histological tissue findings in the prostate gland” value in series [2] (one hour after electroporation, multifocal in distribution pattern) is “hemorrhage, edema, and necrosis, which were mild in severity”. Further, the “diffusion into a tumor cell” value in series [3] is listed as “diffuse very slowly into a tumor cell”. Besides, in series [3] (without electroporation), the “penetration of the membranes of certain cancer cells” value is “normally cannot penetrate the membranes of certain cancer cells effectively”. Moreover, the “log P” value in series [4] is “very negative”. In series [5] (Group 2: 0.5 unit Bleomycin, no electroporation, 6 animals, 67 days), this molecule had a Progressive disease of 100%. Also, the partial response is on record as 14% in series [5] (Group 3: 0.5 units Bleomycin, 4 needle array, 0.65 cm, 942V, 4×100 μs pulses, 1 of 7 animals, 67 days); 14% in series [5] (Group 4: 0.5 units Bleomycin, 6 needle array, 1.00 cm, 1130 V, 6×100 μs pulses, 1 of 7 animals, 67 days); 17% in series [5] (Group 5: 0.5 units Bleomycin, 6 needle array, 0.50 cm, 559 V, 6×100 μs pulses, 1 of 6 animals, 67 days); 12% in series [5] (Group 6: 0.5 units Bleomycin, 4 needle array, 0.87 cm, 1500V, 4×100 μs pulses, 1 of 8 animals, 67 days). Besides, the death in series [5] (Group 3: 0.5 units Bleomycin, 4 needle array, 0.65 cm, 942V, 4×100 μs pulses, 1 of 7 animals) is 14%; in series [5] (Group 4: 0.5 units Bleomycin, 6 needle array, 1.00 cm, 1130 V, 6×100 μs pulses, 1 of 7 animals), 14%; in series [5] (Group 6: 0.5 units Bleomycin, 4 needle array, 0.87 cm, 1500V, 4×100 μs pulses, 2 of 8 animals), 25%. The complete response in series [5] (Group 3: 0.5 units Bleomycin, 4 needle array, 0.65 cm, 942V, 4×100 μs pulses, 5 of 7 animals, 67 days) came to 52%; in series [5] (Group 4: 0.5 units Bleomycin, 6 needle array, 1.00 cm, 1130 V, 6×100 μs pulses, 5 of 7 animals, 67 days), 52%; in series [5] (Group 5: 0.5 units Bleomycin, 6 needle array, 0.50 cm, 559 V, 6×100 μs pulses, 5 of 6 animals, 67 days) it was 83%; in series [5] (Group 6: 0.5 units Bleomycin, 4 needle array, 0.87 cm, 1500V, 4×100 μs pulses, 5 of 8 animals, 67 days) it was 63%. Besides, in series [1], the cytotoxicity enhancement ratio is on record as 1000. Further, the “cell susceptibility with electroporation” value in series [1] is “electroporation enhances cell susceptibility”. Moreover, in series [1], the “cytotoxic enhancement, rank order” value is on record as “highest cytotoxic enhancement”.
